Assays:
[1] = target: Receptor tyrosine-protein kinase erbB-2 (Rattus norvegicus, UniProt P06494); experiment: Inhibition of rat Receptor protein-tyrosine kinase erbB2
[2] = target: Epidermal growth factor receptor and ErbB2 (HER1 and HER2) (Homo sapiens) (UniProt P04626+P00533); experiment: Selectivity for EGF receptor and c-erbB-2; format: protein assay
[3] = Half-life was measured in mouse; format: ADME, organism-based; conditions: in vivo
[4] = Bioavailability in dog; format: ADME, organism-based, Canis lupus familiaris; conditions: in vivo
[5] = Pharmacokinetic property (Plasma clearance) was measured in rat; format: ADME, organism-based
[6] = Bioavailability was measured in rat; format: ADME, organism-based; conditions: in vivo
[7] = Pharmacokinetic property (Plasma clearance) was measured in dog; format: ADME, organism-based, Canis lupus familiaris
[8] = Pharmacokinetic property (Plasma clearance) was measured in mouse; format: ADME, organism-based
[9] = Bioavailability was measured in mouse; format: ADME, organism-based; conditions: in vivo
[10] = Half-life was measured in dog; format: ADME, organism-based, Canis lupus familiaris; conditions: in vivo
[11] = target: Cyclin-dependent kinase 1 (Homo sapiens, UniProt P06493); experiment: Inhibition of Cyclin-dependent kinase 1
Cyclin-dependent kinase 1, sequence (P06493 whole entry): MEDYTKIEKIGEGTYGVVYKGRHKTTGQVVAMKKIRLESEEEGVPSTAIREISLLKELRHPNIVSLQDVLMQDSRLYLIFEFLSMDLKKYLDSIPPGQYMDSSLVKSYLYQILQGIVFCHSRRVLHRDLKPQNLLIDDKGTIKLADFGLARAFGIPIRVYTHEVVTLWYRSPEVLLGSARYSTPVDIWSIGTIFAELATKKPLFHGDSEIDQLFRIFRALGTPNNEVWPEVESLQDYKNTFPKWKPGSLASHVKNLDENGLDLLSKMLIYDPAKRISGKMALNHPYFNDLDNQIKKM

[12] = target: Cyclin-dependent kinase 2 (Homo sapiens, UniProt P24941); experiment: Inhibition of Cyclin-dependent kinase 2
[13] = test system: HB4a; experiment: Inhibition of RAS overexpressing HB4a.R4.2 cell proliferation; format: functional, cell-based; conditions: Homo sapiens
[14] = test system: MRC5; experiment: Inhibition of MRC5 cell proliferation; format: functional, cell-based; conditions: Homo sapiens
[15] = target: Dual specificity mitogen-activated protein kinase kinase; MEK1/2 (Homo sapiens, UniProt P36507+Q02750); experiment: Inhibition of MAPK kinase (MEK); format: protein assay
[16] = target: RAF proto-oncogene serine/threonine-protein kinase (Homo sapiens, UniProt P04049); experiment: Inhibition of Raf kinase
RAF proto-oncogene serine/threonine-protein kinase, sequence (P04049 whole entry): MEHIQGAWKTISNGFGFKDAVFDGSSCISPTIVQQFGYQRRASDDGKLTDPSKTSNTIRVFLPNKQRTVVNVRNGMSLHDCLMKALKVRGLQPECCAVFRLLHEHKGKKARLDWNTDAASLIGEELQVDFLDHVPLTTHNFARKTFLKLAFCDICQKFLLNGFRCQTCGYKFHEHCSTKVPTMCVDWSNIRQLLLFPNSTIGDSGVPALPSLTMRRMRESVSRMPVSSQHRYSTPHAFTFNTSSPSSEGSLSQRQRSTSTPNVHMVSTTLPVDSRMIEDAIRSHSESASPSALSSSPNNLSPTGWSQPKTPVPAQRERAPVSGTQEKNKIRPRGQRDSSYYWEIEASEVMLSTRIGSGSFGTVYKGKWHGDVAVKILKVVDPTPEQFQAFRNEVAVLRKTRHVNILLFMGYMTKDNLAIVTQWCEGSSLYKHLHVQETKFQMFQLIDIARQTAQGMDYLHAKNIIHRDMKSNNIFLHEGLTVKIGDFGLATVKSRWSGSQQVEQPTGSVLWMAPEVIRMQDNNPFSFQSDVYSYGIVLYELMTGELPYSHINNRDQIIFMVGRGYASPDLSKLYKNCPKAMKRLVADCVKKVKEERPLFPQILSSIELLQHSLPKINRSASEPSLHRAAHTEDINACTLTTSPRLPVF

[17] = target: Proto-oncogene tyrosine-protein kinase Src (Homo sapiens, UniProt P12931); experiment: Inhibition of Src kinase
Proto-oncogene tyrosine-protein kinase Src, sequence (P12931 2-536 limits assumed): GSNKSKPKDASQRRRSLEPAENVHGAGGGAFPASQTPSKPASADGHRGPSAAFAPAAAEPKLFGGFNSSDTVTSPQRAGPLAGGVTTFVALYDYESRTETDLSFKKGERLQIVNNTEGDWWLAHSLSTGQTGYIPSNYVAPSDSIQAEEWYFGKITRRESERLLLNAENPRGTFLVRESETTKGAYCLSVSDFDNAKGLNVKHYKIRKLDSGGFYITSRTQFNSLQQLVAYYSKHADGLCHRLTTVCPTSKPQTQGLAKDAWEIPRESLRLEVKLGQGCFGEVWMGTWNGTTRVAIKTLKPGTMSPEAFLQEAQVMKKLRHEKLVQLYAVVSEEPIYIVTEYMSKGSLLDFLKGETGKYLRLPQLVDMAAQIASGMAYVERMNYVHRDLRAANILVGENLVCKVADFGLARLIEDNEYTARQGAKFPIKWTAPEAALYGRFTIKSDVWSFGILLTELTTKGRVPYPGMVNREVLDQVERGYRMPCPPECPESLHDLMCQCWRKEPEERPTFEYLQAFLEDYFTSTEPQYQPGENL

[18] = Half-life was measured in rat; format: ADME, organism-based; conditions: in vivo

Receptor tyrosine-protein kinase erbB-2, sequence (P06494 whole entry): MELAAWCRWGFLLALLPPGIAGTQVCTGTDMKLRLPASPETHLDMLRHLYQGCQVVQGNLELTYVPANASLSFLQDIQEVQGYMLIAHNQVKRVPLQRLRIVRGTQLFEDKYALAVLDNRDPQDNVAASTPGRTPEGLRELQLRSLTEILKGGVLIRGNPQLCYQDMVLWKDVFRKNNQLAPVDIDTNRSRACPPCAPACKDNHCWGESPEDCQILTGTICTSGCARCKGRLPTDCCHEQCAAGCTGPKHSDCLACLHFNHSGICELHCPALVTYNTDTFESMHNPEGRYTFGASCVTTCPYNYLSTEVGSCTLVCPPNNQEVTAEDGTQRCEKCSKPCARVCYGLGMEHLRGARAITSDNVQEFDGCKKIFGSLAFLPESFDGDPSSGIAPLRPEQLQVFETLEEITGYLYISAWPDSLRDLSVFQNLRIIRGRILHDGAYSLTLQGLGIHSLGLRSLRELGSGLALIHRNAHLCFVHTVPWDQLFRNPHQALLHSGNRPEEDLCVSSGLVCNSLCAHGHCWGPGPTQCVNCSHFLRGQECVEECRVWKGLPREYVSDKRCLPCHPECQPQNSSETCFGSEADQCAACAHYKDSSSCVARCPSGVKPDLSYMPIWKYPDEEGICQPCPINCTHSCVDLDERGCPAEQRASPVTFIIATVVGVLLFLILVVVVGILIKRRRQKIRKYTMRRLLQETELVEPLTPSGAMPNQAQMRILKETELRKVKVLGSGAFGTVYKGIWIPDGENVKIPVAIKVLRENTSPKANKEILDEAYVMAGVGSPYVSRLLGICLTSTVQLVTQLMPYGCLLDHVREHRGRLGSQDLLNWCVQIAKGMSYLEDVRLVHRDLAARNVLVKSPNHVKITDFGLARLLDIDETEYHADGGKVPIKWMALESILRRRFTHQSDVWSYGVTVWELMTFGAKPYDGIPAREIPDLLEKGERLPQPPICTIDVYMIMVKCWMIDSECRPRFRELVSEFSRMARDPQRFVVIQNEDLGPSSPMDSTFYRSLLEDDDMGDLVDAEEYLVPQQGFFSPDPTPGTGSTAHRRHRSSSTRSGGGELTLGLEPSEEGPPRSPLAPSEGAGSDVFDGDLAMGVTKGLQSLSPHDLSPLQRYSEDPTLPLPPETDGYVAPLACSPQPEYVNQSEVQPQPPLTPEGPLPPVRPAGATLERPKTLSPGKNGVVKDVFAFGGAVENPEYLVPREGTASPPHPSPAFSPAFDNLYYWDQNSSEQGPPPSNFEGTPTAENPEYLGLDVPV

Row | Structure (SMILES) | IC50 [1] [µM] | Selectivity [2] | also measured
1 | c1ccc(Cn2cnc3ccc(Nc4ncnc5ccccc45)cc32)cc1 | 4.4 | 27 | –
2 | CN(C)c1cc2c(Nc3ccc4c(cnn4Cc4ccccc4)c3)ncnc2cn1 [GW282974X] | 0.018 | – | half-life [3]: 20 min; bioavailability [4]: 82%; clearance [5]: 19 mL/min/kg; bioavailability [6]: 24%; clearance [7]: 34 mL/min/kg; clearance [8]: > 27 mL/min/kg; bioavailability [9]: > 23%; half-life [10]: 44 min; IC50 [11]: > 8 µM; IC50 [12]: > 8 µM; IC50 [13]: 30 µM; IC50 [14]: > 50 µM; IC50 [15]: 9.7 µM; IC50 [16]: 49 µM; IC50 [17]: > 50 µM; half-life [18]: 18 min
3 | COc1cc2ncnc(Nc3ccc4nn(Cc5ccccc5)cc4c3)c2cc1OC | 0.29 | 8.9 | –
4 | c1ccc(Cc2nc3ccc(Nc4ncnc5ccccc45)cc3[nH]2)cc1 | 0.56 | 36 | –
5 | COc1cc2ncnc(Nc3ccc4c(cnn4Cc4ccccc4)c3)c2cc1OC | 0.001 | > 5.6 | –
6 | Nc1cc2c(Nc3ccc4c(cnn4Cc4ccccc4)c3)ncnc2cn1 | 0.027 | > 5.6 | –
7 | COc1cc2ncnc(Nc3ccc4c(ccn4Cc4ccccc4)c3)c2cc1OC | 0.049 | 12.5 | –
8 | c1ccc(Cn2ccc3cc(Nc4ncnc5ccccc45)ccc32)cc1 | 0.09 | – | –
9 | COc1cc2ncnc(Nc3ccc4nc(Cc5ccccc5)[nH]c4c3)c2cc1OC | 0.01 | 19 | –
10 | c1ccc(Cn2ncc3cc(Nc4ncnc5ccccc45)ccc32)cc1 | 0.01 | – | –
11 | Nc1cc2c(Nc3ccc4[nH]c(Cc5ccccc5)nc4c3)ncnc2cn1 | 0.049 | 18.5 | –
12 | Nc1cc2c(Nc3ccc4c(ccn4Cc4ccccc4)c3)ncnc2cn1 | 0.026 | – | –
13 | c1ccc(Cn2cnc3cc(Nc4ncnc5ccccc45)ccc32)cc1 | 6.6 | 39 | –
